Data as given in patent US10857136B2, “Compounds for use in the prevention and/or treatment of non-alcoholic fat liver disease and non-alcoholic steatohepatitis” (SJT MOLECULAR RESEARCH, SL, priority 2017, dated 2020).

Columns and labels:
Type in all cases: in vivo
[1] = test system: DIO mice (C57Bl/6 J male mice); assay: Liver lipid content, 36 days assay in DIO mice (colorimetric kits); details: 50 mg/kg orally twice daily, after 36 days, vs saline control
Description: To assess the performance of the compounds disclosed in decreasing hepatic lipid content, DIO mice (C57Bl/6 J male mice) were treated with a hydrochloride salt of compound 4a; and with compound 7a during 36 days, versus a control of DIO mice treated with saline (0.9% NaCl) and versus DIO mice treated with Metformin as a positive control.
(§1) For the assessment, 60 C57Bl/6 J male mice (16-week-old at delivery and 40 g of average weight), obtained from Charles River France, were put on high fat diet for 10 weeks. The animals were housed in ventilated and enriched housing cages (310×125×127 mm^3) throughout the experimental phase. Animals' cages litters were changed at least once a week. Mice were housed in groups of 10 mice on a normal 12 hours light cycle (at 08:00 pm lights were switched off), at 22±2° C. and 50±10% relative humidity. After reception, mice were maintained for three additional acclimation weeks. During the whole assessment (acclimation+treatment phase) a high fat diet (D12492 purchased from Research Diet Inc; 60% fat) and tap water were provided ad libitum.
(§2) After the acclimation period, mice were fasted for 6 hours and blood glucose and plasma insulin were measured. Ten animals, those with lower blood glucose/plasma insulin, were discarded from the study. Then, the others were randomized into 5 homogenous groups (n=10 mice per group) according to their blood glucose/plasma insulin levels (HOMA-IR) and body weight. Mice were treated orally twice daily for 36 days with either saline solution (control group), SJT test compound (4a, 7a; 50 mg/kg) or metformin (150 mg/kg).
Finally, mice were sacrificed, and liver was collected, weighted and stored at −80° C. for additional analysis. Liver samples were dissected for liver lipids assay. Liver lipids were assayed using colorimetric commercial assay kits, from liver samples homogenate after lipid solubilization in deoxycholate as described by Miao et al., J Lipid Res, 2004, 45, 1410-17. Samples were homogenized with an ultrasound probe with 500 μl distilled water during few seconds. Then cholic acid at 1% is added to make lipids soluble. The measurement of the different lipids was then performed using colorimetric kits from Sobioda, France.

[2] = test system: DIO-NASH mice (C57Bl/6J male mice); assay: Liver weight, 8 weeks assay in DIO-NASH mice; details: 50 mg/kg, p.o., b.i.d., vs DIO-NASH vehicle
Description: The animals were kept and examined under the same conditions were used as in example 2.2. The liver biopsies were also carried out under the same conditions as in example 2.2.
To assess the effect of compound 4a on liver weight of mice with non-alcoholic fat liver disease, DIO-NASH mice (C57Bl/6J male mice) were treated with a hydrochloride salt of compound 4a during 8 weeks (50 mg/kg, p.o., b.i.d.), versus a pathological control of DIO-NASH mice and a non-pathological control LEAN-CHOW mice, both treated with the vehicle (0.9% NaCl). The DIO-NASH mice group were put on high fat diet (40% AMLN diet, D09100301 Research Diets, USA) and a control group (LEAN-CHOW) was put on a regular chow diet (Altromin 1324, Brogaarden, Denmark) for 35 weeks prior to the study.

[3] = test system: DIO mice (C57Bl/6J male mice); assay: Insulin resistance (HOMA-IR), 36 days assay in DIO mice; details: 50 mg/kg orally twice daily for 36 days, days 1, 8, 15, 22, 29 and 36, vs saline control, similar to metformin 150 mg/kg
Description: To assess the performance of the compounds disclosed in decreasing insulin resistance, DIO mice (C57Bl/6J male mice) were treated with hydrochloride salts of compounds 4a, 5a; and with compound 7a during 36 days, versus a control treated with saline (0.9% NaCl) and versus DIO mice treated with metformin as a positive control.
as §1, with “River France” for “River France, were”, “whole test” for “whole assessment”, “Diet Inc.;” for “Diet Inc;”
After the acclimation period, mice were fasted for 6 hours and blood glucose and plasma insulin were measured. Ten animals, those with lower blood glucose/plasma insulin, were discarded from the study. […]
Body weight were weekly measured as well as blood glucose and plasma insulin after a 6 hour-fasting.
Blood glucose was measured by sampling blood from the tip of the tail: a drop of blood is collected and placed on a glucometer strip (Accu-Check® glucometer, Roche, Switzerland). Plasma insulin was detected via ELISA (Elisa Kit, Eurobio, France) using 5 μl samples.
The Homeostatic model assessment-insulin resistance index (HOMA-IR), which is used to quantify insulin resistance, was calculated from fasting blood glucose, and plasma insulin values as follows: HOMA-IR=(mM glucose×μU/mL insulin)/22.5, being this constant a normalizing factor (Matthews et al., 1985, Diabetologia 28(7), 412-9).

[4] = test system: DIO mice (C57Bl/6J male mice); assay: Liver weight, 36 days assay in DIO mice; details: 50 mg/kg orally twice daily, after 36 days, vs saline control and metformin 150 mg/kg
Description: To assess the performance of the compounds disclosed decreasing liver overweight, DIO mice (C57Bl/6J male mice) were treated with compounds 4a and 5a during 36 days, versus a control of DIO mice treated with vehicle (0.9% NaCl) and DIO mice treated with Metformin as a positive control.
as §1, with “60 C57Bl/6J” for “60 C57Bl/6 J”, “whole test” for “whole assessment”, “diet (D12492;” for “diet (D12492”, “Diet Inc” for “Diet Inc;”
as §2, with “Mice were treated orally twice daily for 36 days with either saline solution (control group), SJT test compound (4a, 7a; 50 mg/kg) or metformin (150 mg/kg).” left out

`COc1ccc(-c2nc(C(=O)NCCN)cc3c2[nH]c2ccccc23)cc1` [Compound 4a, N(-ethylamine)-1-benzosubstituted-β-carboline-3-carboxamide] was tested, and the hepatic cholesterol [1] was “lower lipid levels than untreated control animals”, the hepatic fatty acids [1] was “lower lipid levels than untreated control animals” and the hepatic triglycerides [1] was “lower lipid levels than untreated control animals”. The total liver weight [2] was “reduced liver weight”, the “insulin resistance (HOMA-IR)” value [3] was “lower insulin resistance compared to the control animals” and the “liver weight (liver overweight)” value [4] was “lower liver weight than either mice treated with metformin or than the control animals”.
